According to patent US9969674B2, “MMF-derivatives of ethyleneglycols” (RATIOPHARM GMBH, priority 2014, dated 2018):
Where “and” joins values, the source holds several entries; their conditions need not be identical. Equal values may be shown once. Where a name gives a salt, the structure may show the parent alone.

Legend:
[1] = Kinetics of MMF-release during incubation in intestinal fluid of the minipig; type: in vitro ADME, Göttingen SPF minipig; details: for release of the second equivalent of MMF / release kinetics of the first equivalent of MMF: diluted minipig small intestinal fluid pH 6.8, 37° C., compared with DMF (FIG. 1); for release kinetics of the first equivalent of MMF: time 0-30 min
Method: Example 7: Investigation and Comparison of the Kinetics of MMF-Release of the Different Compounds of the Present Invention and DMF During Incubation in Intestinal Fluid of the Minipig
Intestinal tissue/fluid and enterocyte samples were taken from a 10 month old, female Göttingen SPF minipig. The body weight was 21 kg. The minipig was fasted for approximately 28 hours before sampling of intestinal fluid/tissues and enterocytes. On the day of sampling, the minipig was weighed and anaesthetised by an intramuscular injection in the neck or in the left hind leg (about 0.3 ml per kg body weight) of a mixture of Zoletil 50 Vet., Virbac, France (125 mg tiletamine and 125 mg zolazepam), Rompun Vet., Bayer, Germany (20 mg xylazine/ml, 6.5 ml), Ketaminol Vet., Veterinaria AG, Switzerland (100 mg ketamine/ml, 1.5 ml) and Methadon DAK, Nycomed Danmark, Denmark (10 mg methadon/ml, 2.5 ml). The animal was killed by exsanguination before sampling of intestinal fluid. An intestinal segment was ligated at both ends before removal. The isolated tissue was placed in isotonic saline and opened by a longitudinal cut for sampling of intestinal fluid.
The intestinal tissue from each segment was transferred into a Centrifuge Tube, immersed in 10 ml 50 mM phosphate buffer, pH 6.8 and frozen at −70° C.
• Instrument: Acquity UPLC system coupled with a TQ detector (triple quadruple mass spectrometer) UPLC Method: Column: Phenomenex Kinetex C18, 100 A, 2.6 μm (150×4.6 mm) flow: 0.4 ml/min split: appr. 100 μl/min to MS Temperature: 30° C. solvent system (isocratic): • Solvent A 25% water with 0.1% acetic acid • Solvent B 75% methanol with 0.1% acetic acid stoptime: 6 min autosampler temperature: 8° C. injection volume: 4 μl retention time: MN/IF: 4.3 min • MEF: 4.7 min Mass Spectrometry software: Masslynx 4.1 detection mode: electrospray/negative ions (ESP−) capillary voltage: 2.3 kV source temperature: 100° C. desolvation temperature: 450° C. cone voltage: 18 V desolvation gas: N2 650 L/h cone gas: N2, 20 L/h collision gas: argon, appr. 3.3*10^−3 mbar collision energy: 11 eV MRM [m/z]: 128.94>85.03 Monomethylfumarate dwell: 200 msec • 142.99>99.06 Monoethylfumarate (ISTD) dwell: 200 msec 7.2.1.2 Stock and Calibration Solutions
Stock (SS), working (WS) and calibration solutions of the analyte monomethyl fumarate (MMF) and the internal standard (ISTD) […] (MEF) were prepared as described below. • SSMMF: In a 10 ml volumetric flask, 6.5 mg MMF (Batch: MKRJ0642V/Aldrich) were dissolved in methanol and made up to volume (c=650 μg/ml) • SSISTD: In a 100 ml volumetric flask, 10 mg MEF (Batch: STBC5219V/Aldrich) were dissolved in methanol and made up to volume (c=100 μg/ml) • WSISTD: 100 μl SSISTD were transferred into a 10 ml volumetric flask and made up to volume with acetonitrile (c=1,000 ng/ml);
Calibration solutions were prepared by serial dilution of SSMMF; diluted small intestinal fluid (diluted by 1/20 v/v with 50 mM KH2PO4, pH 6.8; (dil IF) was used as matrix. The dilution scheme is given below:
50 μl sample (calibration solution or sample of an incubation experiment with MMF prodrugs) was mixed with 50 μl WSISTD, 20 μl formic acid and 100 μl acetonitrile. This mixture was vortexed for 15 sec and centrifuged (13,000 rpm, 3 min). Thereafter, 4 μl of the supernatant were subjected to LC-MS analysis.
Stock solutions were prepared in DMSO or, for one compound, in DMSO with 10% (v/v) water. Concentrations in stock solutions were […] for compounds with one, two and three molar MMF equivalents.
In a HPLC glass vial, 8 μl of stock solution were mixed with 792 μl dil IF and the mixture was stirred (250 rpm) in a water bath (T=37° C.).
Immediately after mixing as well as at t=15 min, 30 min, 60 min, 90 min and 120 min, 50 μl were withdrawn and prepared for LC-MS analysis as described in chapter. 2.1.3. […]

[2] = test system: MOG35-55-induced experimental autoimmune encephalomyelitis (EAE); assay: MOG35-55-induced experimental autoimmune encephalomyelitis (EAE) in C57BL/6 mice; type: in vivo; details: for body weight: prophylactic oral treatment from day 1, observation day 1-13 (FIG. 2); for development of clinical symptoms (clinical score): prophylactic oral treatment from day 1, observation day 1-13, 11.54 mM dose formulation, 10 ml/kg (FIG. 3)
Excerpt: Assessment and comparison of the efficacy of compounds of the invention and DMF (reference) in MOG35-55-induced experimental autoimmune encephalomyelitis (EAE) in C57BL/6 mice: • Test system: male C57BL/6 mice, 12 weeks old; 10 animals per treatment group; • Induction of EAE: Day −1—subcutaneous injection of MOG35-55, suspended in complete Freund's adjuvans and intraperitoneal injection of pertussis toxin. • Day 3—intraperitoneal injection of pertussis toxin. • Treatment: Dimethylfumarate and test substances or vehicle only were administered via oral route. Test substances were dissolved or suspended in 0.5% hydroxyethylcellulose (dissolved in 50 mM potassium dihydrogenphosphate, pH 5.0). Drug concentration in dose formulations: 11.54 mM; • Dose volume: 10 ml/kg body weight; • Start of treatment: Day 1 • Observations (clinical Observations were recorded daily between day 1 and 13. score and body weight): • Clinical score: grade 0-10; 0 (=no impairments), 1 (normal movement; limp tail: proximal ⅔ of the tail is limp and droopy), 2 (normal movement; whole tail is limp; 3 (wobbly walk; absent righting reflex), 4 (gait ataxia), 5 (mild paraparesis), 6 (moderate paraparesis), 7 (severe paraparesis or paraplegia), 8 (tetraparesis), 9 (moribund), 10 (death).

[3] = test system: Caco-2 monolayers; assay: in vitro
Method: (§1) The membrane permeability was investigated in Caco-2 monolayers. DMF was investigated in a separate experiment for comparison.
(§2) Based on the assumption that in vivo, the intact molecules will be pre-systemically metabolized, the permeability test was performed only in the apical→basolateral direction. The test concentration in the apical medium was 250 μM. […] Sampling time points were 15, 45 and 90 min.

[4] = in vitro; details: human, Caco-2
Method: as §1, §2

[5] = In vivo pharmacokinetics of MMF after oral administration in NMRI mice; details: female, mouse, 65.3 mg/kg
Method: The pharmacokinetics of MMF after administration of the compound of Example 1 and DMF for comparison was investigated in female NMRI mice (3 animals per group). The test compound was dissolved in DMSO/PEG300 (20/80) and administered p.o. (gavage) at a dose volume of 10 ml/kg. DMF was given at a dose of 45 mg/kg. The test compound was dosed at a MMF-equivalent dose, i.e. 65.3 mg/kg. Blood samples were taken at 0.25, 0.5, 1.0, 2.0, 4.0, 6.0 and 8.0 h after drug administration.
Pharmacokinetic parameters, derived by non-compartmental analysis for test compound (Example 1): […]

Row | SMILES | body weight [2] | development of clinical symptoms (clinical score) [2] | permeability category compared to the reference molecules ([3]; Caco-2) | release of the second equivalent of MMF [1] | release kinetics of the first equivalent of MMF [1] | further results
1 | COC(=O)/C=C/C(=O)OC(C)OC(=O)/C=C/C(=O)OC [(E)-But-2-enedioic acid 1-((E)-3-methoxycarbonyl-acryloyloxy)-ethyl ester methyl ester, reference compound] | – | – | – | – | – | release kinetics of MMF ([1]; incubation in intestinal fluid of the minipig, compared with DMF (FIG. 8)): considerable faster than that of DMF
2 | COC(=O)/C=C/C(=O)OC [DMF, Dimethyl fumarate] | remained stable | protected from the development of clinical symptoms | moderate permeability | – | – | Recovery [%] mean ± s.d. ([3]; Caco-2): 11.6 ± 1.0%; Papp × 10^−6 [cm/sec] mean ± s.d. ([3]; human, Caco-2, 250 μM): 1.8 ± 0.2 10^−6 cm/sec
3 | COC(=O)/C=C/C(=O)OCCOCCOCCOCCOC(=O)/C=C/C(=O)OC [Example 1, (E)-But-2-enedioic acid 2-(2-{2-[2-((E)-3-methoxycarbonyl-acryloyl-oxy)-ethoxy]-ethoxy}-ethoxy)-ethyl ester methyl ester] | remained stable | protected from the development of clinical symptoms | moderate permeability | released more slowly | essentially identical to that of DMF | Papp A→B at 250 μM [4]: 1 ± 0.1 ×10⁻⁶ cm/s; recovery at 90 min, 250 µM [4]: 17.1%; AUC(0-inf) [5]: 5990 ng·h/mL
4 | COC(=O)/C=C/C(=O)OCCOCCOCCOC(=O)/C=C/C(=O)OC [Example 2, (E)-But-2-enedioic acid 2-{2-[2-((E)-3-methoxycarbonyl-acryloyl-oxy)-ethoxy]-ethoxy}-ethyl ester methyl ester] | – | – | – | released more slowly | essentially identical to that of DMF | –
5 | COC(=O)/C=C/C(=O)OCCOCCOC(=O)/C=C/C(=O)OC [Example 3, (E)-But-2-enedioic acid 2-[2-((E)-3-methoxycarbonyl-acryloyloxy)-ethoxy]-ethyl ester methyl ester] | – | – | – | released more slowly | essentially identical to that of DMF | –
6 | C[C@]12CC[C@H]3[C@@H](CCC4=CC(=O)CC[C@@]43C)[C@@H]1CC[C@@H]2O [Testosterone, testosterone] | – | – | – | – | – | Recovery [%] mean ± s.d. ([3]; direction a-b): 67.3 ± 1.2% and 62.5 ± 2.1%; Recovery [%] mean ± s.d. ([3]; direction b-a): 94.9 ± 0.9% and 76.1 ± 4.5%
